Assay results published in ChEMBL document CHEMBL1201862, “PubChem BioAssay data set” (2004).
Active and inactive are the calls of the source.

Columns and labels:
[1] = inhibition of ADAM10 peptide cleavage – biochemical, FRET peptide substrate, recombinant human ADAM10, selectivity assay for ADAM17 exosite inhibitor project, dose response (AID 743259);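 further: ADAM10 enzyme cleaving a FRET peptide substrate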
[2] = biological target: T1, Disintegrin and metalloproteinase domain-containing protein 17 (Homo sapiens, UniProt P78536); assay: exosite inhibitors of ADAM17, dose response, biochemical (AID 743260)
[3] = biological target: T1, Disintegrin and metalloproteinase domain-containing protein 17; assay: inhibition of ADAM17 substrate cleavage – biochemical, quenched FRET substrate, counter-screen for ADAM10 exosite inhibitor project, dose response (AID 743253)
[4] = potency of ADAM10 substrate cleavage blockers – biochemical, QFRET, dose response (AID 743254);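 further: ADAM10 enzyme with the DM2 quenched FRET peptide as substrate; EDANS fluorescence gain as the protease cuts the substrate; inhibitor potency against ADAM10 proteolytic activity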
Streptococcus = assay: GAS UMAA2166 growth inhibition – luminescence, BacTiterGlo, counter-screen for streptokinase expression inhibitor project, dose response (AID 1915); format: functional, organism-based;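 further: potency for reduction of bacterial viability or growth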
[5] = test system: Streptococcus sp. 'group A'; assay: Streptococcus pyogenes SK(-)GAS viability under kanamycin – luminescence, BacTiterGlo, confirmation, counter-screen for streptokinase expression inhibitor project, dose response (AID 1900); format: functional, organism-based
[6] = biological target: T2, Probable nicotinate-nucleotide adenylyltransferase (Staphylococcus aureus (strain N315), UniProt P65502); format: functional, Staphylococcus aureus subsp. aureus N315;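 on IC50 Mean: confirmatory dose-response retesting of NadD inhibitor hits first found in an ultra-high-throughput screen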
[7] = biological target: T2, Probable nicotinate-nucleotide adenylyltransferase; format: functional, Staphylococcus aureus subsp. aureus N315; settings: read-out: IC50_Mean
[8] = biological target: T3, Fructose-bisphosphate aldolase (Mycobacterium tuberculosis, UniProt P9WQA3); assay: Fluorescence-based biochemical high throughput dose response assay for inhibitors of the fructose-bisphosphate aldolase (FBA) of M. tuberculosis.; format: functional
T3 sequence (P9WQA3 whole entry): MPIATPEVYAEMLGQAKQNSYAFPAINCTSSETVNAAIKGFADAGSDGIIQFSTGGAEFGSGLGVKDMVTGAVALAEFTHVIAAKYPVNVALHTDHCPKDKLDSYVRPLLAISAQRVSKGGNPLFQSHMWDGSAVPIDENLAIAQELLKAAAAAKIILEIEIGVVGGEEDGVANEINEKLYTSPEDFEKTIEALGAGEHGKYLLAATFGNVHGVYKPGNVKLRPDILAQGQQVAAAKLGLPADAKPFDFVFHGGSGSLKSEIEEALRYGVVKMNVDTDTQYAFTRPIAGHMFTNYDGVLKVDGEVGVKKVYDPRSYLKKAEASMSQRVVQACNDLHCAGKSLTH

fMet-Leu-Phe receptor = biological target: T4, fMet-Leu-Phe receptor (Homo sapiens, UniProt P21462); assay: formyl peptide receptor binders – dose response (AID 519); format: functional
T4 sequence (P21462 whole entry): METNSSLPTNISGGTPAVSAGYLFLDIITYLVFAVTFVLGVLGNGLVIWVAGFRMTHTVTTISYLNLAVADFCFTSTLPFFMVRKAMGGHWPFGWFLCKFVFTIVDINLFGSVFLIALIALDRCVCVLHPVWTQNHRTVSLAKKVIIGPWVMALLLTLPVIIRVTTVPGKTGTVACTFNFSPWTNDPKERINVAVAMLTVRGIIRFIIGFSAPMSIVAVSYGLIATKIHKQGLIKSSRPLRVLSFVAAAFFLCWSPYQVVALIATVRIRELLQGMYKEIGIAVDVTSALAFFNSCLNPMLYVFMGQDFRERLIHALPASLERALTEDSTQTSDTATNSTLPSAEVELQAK

Beta-lactamase [9] = biological target: T5, Beta-lactamase (Pseudomonas aeruginosa, UniProt Q79MP6); assay: inhibition of IMP-1 beta-lactamase activity – biochemical, epi-absorbance, selectivity assay for VIM-2 inhibitor project, dose response (AID 1920)
Beta-lactamase [10] = biological target: T5, Beta-lactamase; assay: […] counterscreen for selective VIM-2 inhibitors: dose response biochemical high throughput screening assay to identify inhibitors of IMP-1 metallo-beta-lactamase.
Streptokinase A = biological target: T6, Streptokinase A (Streptococcus pyogenes serotype M1, UniProt P10520); assay: viability-normalized secreted streptokinase activity reduction – plasminogen activation absorbance, OD405, dose response (AID 1914); format: functional, Streptococcus pyogenes M1 GAS;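 further: secreted streptokinase activity via plasminogen activation per viability signal from cell pellet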
T6 sequence (P10520 whole entry): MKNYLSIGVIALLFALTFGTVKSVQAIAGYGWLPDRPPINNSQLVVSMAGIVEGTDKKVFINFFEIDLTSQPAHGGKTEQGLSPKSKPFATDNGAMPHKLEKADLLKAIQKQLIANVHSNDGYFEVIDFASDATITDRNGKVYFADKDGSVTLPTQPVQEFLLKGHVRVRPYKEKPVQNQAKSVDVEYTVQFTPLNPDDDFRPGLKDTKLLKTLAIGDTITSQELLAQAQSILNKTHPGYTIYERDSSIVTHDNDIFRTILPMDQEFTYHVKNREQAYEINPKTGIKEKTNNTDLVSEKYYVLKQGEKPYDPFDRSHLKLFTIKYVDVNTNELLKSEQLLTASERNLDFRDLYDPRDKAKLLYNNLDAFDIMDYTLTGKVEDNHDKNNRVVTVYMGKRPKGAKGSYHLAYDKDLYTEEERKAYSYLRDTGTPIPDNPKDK

Beta-lactamase [11] = biological target: Beta-lactamase (Salmonella choleraesuis (strain SC-B67), UniProt Q5J463); assay: Epi-absorbance-based counterscreen for selective VIM-2 inhibitors: dose response biochemical high throughput screening assay to identify inhibitors of TEM-1 serine-beta-lactamase.
[12] = biological target: T7, Zinc finger protein mex-5 (Caenorhabditis elegans, UniProt Q9XUB2); assay: potency of MEX-5 RNA-binding blockers – biochemical, C. elegans, fluorescence polarization, dose response (AID 1960)
T7 sequence (Q9XUB2 whole entry): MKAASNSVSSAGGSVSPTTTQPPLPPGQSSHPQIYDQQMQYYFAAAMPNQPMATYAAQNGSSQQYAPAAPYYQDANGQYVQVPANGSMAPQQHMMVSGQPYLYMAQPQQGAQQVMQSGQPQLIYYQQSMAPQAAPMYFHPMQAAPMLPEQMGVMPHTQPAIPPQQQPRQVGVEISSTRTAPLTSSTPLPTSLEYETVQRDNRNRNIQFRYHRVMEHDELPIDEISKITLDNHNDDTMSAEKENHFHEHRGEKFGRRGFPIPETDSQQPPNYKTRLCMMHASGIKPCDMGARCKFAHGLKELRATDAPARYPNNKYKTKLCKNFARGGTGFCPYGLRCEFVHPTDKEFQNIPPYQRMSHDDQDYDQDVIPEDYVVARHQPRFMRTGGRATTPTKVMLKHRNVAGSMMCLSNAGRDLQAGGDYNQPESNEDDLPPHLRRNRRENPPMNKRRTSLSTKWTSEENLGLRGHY

[13] = biological target: T8, RNA-binding protein pos-1 (Caenorhabditis elegans, UniProt G5EF15); assay: disruptors of C. elegans POS-1 RNA interaction – biochemical, fluorescence polarization, dose response (AID 1964);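 further: purified POS-1 fused to maltose binding protein made in E. coli; potency of compounds blocking POS-1 binding to fluorescent RNA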
T8 sequence (G5EF15 whole entry): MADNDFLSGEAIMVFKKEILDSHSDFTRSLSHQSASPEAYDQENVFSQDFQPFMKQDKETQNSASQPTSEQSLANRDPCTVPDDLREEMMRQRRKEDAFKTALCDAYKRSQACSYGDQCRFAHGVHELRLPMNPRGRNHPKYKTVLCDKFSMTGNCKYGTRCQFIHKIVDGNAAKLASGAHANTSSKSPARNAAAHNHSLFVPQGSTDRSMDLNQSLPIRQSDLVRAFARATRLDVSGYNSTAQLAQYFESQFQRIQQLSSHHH

HEK293 [14] = assay: cells; format: functional, cell-based; settings: Homo sapiens
HEK293 [15] = assay: inhibition of NOD1-driven NF-kB reporter – cell-based, luminescence, uHTS, primary screen (AID 1578); format: functional; settings: Homo sapiens
HEK293 [16] = assay: NOD2 signaling inhibitors in MDP-stimulated cells, cell-based, uHTS, luminescence (AID 2001); format: functional; settings: Homo sapiens
[17] = biological target: T9, Corticotropin-releasing factor receptor 2/Corticotropin-releasing factor-binding protein (Homo sapiens, UniProt P24387+Q13324); assay: activators of CRF receptor 2 with binding protein – uHTS hits, confirmation (AID 602473); format: functional; settings: read-out: EC50_Mean
T9 sequence (Q13324 whole entry): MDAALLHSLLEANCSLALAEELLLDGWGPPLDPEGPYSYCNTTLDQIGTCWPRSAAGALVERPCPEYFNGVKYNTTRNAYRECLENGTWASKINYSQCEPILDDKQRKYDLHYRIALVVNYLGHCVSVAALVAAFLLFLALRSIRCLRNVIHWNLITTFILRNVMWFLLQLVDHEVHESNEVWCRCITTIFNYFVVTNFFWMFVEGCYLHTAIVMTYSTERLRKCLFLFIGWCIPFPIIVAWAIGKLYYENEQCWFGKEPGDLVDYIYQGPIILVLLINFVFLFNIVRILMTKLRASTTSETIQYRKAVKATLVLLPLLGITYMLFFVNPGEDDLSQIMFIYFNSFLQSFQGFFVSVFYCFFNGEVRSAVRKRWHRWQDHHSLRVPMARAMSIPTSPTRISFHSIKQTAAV
T9 sequence (P24387 whole entry): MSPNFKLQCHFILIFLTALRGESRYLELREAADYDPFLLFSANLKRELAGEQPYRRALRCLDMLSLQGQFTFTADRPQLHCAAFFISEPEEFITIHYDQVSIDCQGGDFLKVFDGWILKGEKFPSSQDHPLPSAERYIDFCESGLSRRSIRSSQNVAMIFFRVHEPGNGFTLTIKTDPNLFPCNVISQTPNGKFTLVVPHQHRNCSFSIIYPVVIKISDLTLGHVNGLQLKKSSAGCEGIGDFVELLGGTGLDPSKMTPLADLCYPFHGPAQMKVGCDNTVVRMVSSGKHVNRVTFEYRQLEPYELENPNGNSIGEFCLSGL

HEK293 [18] = assay: cells; format: functional, cell-based; settings: Homo sapiens; remark: listed apart in the source
[19] = biological target: T9, Corticotropin-releasing factor receptor 2/Corticotropin-releasing factor-binding protein; assay: Dose Response confirmation of uHTS hits for small molecule antagonists of the CRF-binding protein and CRF-R2 receptor complex.; format: functional; settings: read-out: IC50_Mean
[20] = blockers of CRF-binding protein–CRF-R2 complex – cell-based, uHTS hits, 384-well, dose response (AID 651639); format: functional, Homo sapiens; settings: read-out: IC50_Mean
Fatty acid synthase [21] = biological target: T10, Fatty acid synthase (Homo sapiens, UniProt P49327); assay: inhibition of human FAS-TE enzyme activity – biochemical, endpoint fluorescence intensity, uHTS hits, dose response (AID 624327); format: functional;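 further: fluorescence from hydrolysis of an O-methyl fluorescein acyl ester substrate by the enzyme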
[22] = biological target: Nucleotide-binding oligomerization domain-containing protein 2 (Homo sapiens, UniProt Q9HC29); assay: inhibition of NOD2-driven NF-kB reporter – cell-based, luminescence, uHTS, HEK293 (AID 1566); format: functional
HEK293 [23] = assay: cells; format: functional, cell-based; settings: Homo sapiens; remark: listed apart in the source
Fatty acid synthase [24] = biological target: T10, Fatty acid synthase; assay: inhibition of human FAS-TE enzyme activity – biochemical, kinetic fluorescence intensity, dose response (AID 624326); format: functional;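 further: rate of fluorescence rise from hydrolysis of a fluorogenic O-methyl fluorescein ester substrate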
[25] = Luminescence Cell-Based Dose Retest to Confirm Inhibitors of Cancer Stem Cells. [Related pubchem assays (depositor defined):AID2717, AID2721]; format: functional; settings: Homo sapiens
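Wherever AC50 is given: cells exposed to compound for roughly 70 hours or longer before luminescence read.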

T1 sequence (P78536 whole entry, the tested form may be a part): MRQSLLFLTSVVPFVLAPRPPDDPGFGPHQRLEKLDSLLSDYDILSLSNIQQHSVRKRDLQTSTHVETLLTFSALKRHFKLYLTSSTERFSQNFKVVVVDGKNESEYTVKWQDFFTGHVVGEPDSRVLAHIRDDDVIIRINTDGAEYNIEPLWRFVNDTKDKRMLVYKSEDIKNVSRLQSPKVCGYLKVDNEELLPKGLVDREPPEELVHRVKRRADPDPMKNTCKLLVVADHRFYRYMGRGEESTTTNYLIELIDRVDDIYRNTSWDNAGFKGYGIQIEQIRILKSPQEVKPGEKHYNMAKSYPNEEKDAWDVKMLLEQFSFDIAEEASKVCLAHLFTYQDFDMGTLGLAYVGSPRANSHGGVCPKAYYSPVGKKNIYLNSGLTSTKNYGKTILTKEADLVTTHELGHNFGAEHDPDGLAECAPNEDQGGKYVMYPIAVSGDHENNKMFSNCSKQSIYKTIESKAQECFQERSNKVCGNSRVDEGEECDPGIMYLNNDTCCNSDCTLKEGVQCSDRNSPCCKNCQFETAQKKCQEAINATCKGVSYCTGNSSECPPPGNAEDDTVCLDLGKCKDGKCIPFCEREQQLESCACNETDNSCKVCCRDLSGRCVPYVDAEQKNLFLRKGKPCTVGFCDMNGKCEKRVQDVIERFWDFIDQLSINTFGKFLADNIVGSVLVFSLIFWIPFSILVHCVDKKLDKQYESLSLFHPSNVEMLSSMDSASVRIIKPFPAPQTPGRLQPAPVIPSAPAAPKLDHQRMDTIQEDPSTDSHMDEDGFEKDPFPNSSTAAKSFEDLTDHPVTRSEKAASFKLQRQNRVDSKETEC
T5 sequence (Q79MP6 whole entry): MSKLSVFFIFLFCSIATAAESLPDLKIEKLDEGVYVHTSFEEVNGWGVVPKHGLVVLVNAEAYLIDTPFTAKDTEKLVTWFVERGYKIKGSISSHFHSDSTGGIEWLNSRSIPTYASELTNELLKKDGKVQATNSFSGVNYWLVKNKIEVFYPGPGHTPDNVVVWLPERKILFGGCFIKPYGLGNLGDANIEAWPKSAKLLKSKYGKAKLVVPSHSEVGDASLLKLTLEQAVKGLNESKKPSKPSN
T2 sequence (P65502 whole entry): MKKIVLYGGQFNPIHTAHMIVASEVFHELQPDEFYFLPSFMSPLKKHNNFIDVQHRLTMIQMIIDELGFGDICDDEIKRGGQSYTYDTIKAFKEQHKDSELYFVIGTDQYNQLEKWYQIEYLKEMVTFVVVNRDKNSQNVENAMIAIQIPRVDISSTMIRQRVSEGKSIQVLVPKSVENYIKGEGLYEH
T10 sequence (P49327 whole entry, the tested form may be a part): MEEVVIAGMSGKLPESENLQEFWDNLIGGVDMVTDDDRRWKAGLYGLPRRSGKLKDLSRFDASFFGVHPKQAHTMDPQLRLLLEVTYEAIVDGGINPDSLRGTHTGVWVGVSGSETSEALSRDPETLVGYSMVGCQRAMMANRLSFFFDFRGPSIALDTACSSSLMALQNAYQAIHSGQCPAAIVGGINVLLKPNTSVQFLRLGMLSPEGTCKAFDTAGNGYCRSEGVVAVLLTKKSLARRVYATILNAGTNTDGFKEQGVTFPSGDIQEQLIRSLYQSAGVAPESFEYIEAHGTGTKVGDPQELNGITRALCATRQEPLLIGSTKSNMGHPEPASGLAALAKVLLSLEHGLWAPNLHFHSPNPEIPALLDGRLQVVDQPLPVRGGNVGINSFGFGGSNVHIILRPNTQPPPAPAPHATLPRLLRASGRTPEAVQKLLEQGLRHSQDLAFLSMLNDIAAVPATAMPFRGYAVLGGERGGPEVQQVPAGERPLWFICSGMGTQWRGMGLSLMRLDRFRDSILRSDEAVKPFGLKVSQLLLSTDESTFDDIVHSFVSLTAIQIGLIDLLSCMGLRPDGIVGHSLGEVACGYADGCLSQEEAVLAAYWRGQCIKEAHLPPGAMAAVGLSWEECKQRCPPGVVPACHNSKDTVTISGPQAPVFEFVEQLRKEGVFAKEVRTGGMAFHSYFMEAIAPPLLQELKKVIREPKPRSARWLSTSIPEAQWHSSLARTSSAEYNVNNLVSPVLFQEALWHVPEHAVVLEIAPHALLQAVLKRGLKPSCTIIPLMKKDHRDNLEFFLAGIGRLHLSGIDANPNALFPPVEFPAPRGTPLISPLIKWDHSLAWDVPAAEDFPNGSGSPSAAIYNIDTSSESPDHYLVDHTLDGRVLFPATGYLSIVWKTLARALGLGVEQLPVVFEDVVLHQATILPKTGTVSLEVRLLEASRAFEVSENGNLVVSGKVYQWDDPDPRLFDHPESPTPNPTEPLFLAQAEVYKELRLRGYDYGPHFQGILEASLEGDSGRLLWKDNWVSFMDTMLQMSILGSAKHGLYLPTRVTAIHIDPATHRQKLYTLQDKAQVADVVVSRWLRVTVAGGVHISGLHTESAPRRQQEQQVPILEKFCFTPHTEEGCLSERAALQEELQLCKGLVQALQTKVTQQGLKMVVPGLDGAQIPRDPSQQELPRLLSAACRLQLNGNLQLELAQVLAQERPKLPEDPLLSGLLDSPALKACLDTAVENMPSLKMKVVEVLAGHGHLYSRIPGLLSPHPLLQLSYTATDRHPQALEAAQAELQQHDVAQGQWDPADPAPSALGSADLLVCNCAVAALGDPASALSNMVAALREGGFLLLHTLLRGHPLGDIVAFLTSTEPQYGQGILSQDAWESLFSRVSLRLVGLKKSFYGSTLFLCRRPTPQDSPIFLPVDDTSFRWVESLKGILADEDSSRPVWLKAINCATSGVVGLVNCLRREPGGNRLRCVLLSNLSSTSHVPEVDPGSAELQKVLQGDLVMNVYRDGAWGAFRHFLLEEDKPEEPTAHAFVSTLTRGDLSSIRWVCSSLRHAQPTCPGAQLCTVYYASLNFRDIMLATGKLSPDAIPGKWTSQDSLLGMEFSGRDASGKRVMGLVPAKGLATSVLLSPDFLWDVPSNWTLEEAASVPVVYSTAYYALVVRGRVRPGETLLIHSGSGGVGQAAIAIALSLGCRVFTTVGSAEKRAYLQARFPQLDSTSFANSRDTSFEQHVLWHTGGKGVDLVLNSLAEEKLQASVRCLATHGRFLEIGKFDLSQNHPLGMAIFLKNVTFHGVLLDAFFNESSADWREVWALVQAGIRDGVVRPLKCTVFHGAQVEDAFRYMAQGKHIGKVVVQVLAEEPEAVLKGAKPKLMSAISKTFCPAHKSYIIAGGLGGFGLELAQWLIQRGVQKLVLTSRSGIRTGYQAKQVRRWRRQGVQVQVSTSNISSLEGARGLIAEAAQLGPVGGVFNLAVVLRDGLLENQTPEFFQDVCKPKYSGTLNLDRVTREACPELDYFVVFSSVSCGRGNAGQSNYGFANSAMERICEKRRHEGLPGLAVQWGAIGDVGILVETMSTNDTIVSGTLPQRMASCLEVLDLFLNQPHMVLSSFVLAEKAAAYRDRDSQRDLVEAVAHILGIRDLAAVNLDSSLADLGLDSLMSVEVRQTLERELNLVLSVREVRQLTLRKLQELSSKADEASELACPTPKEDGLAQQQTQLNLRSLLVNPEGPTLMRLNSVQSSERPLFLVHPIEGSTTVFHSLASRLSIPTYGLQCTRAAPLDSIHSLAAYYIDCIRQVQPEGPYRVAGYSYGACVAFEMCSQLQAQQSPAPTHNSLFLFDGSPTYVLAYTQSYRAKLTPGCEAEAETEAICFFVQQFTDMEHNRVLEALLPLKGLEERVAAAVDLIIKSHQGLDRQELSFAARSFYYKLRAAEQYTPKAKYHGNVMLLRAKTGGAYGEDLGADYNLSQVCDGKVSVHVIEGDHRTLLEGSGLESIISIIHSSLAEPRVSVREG
Sequence of Beta-lactamase (Salmonella choleraesuis (strain SC-B67), UniProt Q5J463) (Q5J463 whole entry): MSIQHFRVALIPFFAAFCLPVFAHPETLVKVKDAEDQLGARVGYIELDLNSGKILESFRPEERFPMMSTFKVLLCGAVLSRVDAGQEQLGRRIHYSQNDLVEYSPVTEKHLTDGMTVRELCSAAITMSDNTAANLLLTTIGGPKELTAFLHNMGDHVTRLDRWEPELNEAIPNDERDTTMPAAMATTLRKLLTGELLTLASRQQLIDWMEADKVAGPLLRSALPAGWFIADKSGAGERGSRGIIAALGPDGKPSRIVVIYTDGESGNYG
Sequence of Nucleotide-binding oligomerization domain-containing protein 2 (Q9HC29 whole entry, the tested form may be a part): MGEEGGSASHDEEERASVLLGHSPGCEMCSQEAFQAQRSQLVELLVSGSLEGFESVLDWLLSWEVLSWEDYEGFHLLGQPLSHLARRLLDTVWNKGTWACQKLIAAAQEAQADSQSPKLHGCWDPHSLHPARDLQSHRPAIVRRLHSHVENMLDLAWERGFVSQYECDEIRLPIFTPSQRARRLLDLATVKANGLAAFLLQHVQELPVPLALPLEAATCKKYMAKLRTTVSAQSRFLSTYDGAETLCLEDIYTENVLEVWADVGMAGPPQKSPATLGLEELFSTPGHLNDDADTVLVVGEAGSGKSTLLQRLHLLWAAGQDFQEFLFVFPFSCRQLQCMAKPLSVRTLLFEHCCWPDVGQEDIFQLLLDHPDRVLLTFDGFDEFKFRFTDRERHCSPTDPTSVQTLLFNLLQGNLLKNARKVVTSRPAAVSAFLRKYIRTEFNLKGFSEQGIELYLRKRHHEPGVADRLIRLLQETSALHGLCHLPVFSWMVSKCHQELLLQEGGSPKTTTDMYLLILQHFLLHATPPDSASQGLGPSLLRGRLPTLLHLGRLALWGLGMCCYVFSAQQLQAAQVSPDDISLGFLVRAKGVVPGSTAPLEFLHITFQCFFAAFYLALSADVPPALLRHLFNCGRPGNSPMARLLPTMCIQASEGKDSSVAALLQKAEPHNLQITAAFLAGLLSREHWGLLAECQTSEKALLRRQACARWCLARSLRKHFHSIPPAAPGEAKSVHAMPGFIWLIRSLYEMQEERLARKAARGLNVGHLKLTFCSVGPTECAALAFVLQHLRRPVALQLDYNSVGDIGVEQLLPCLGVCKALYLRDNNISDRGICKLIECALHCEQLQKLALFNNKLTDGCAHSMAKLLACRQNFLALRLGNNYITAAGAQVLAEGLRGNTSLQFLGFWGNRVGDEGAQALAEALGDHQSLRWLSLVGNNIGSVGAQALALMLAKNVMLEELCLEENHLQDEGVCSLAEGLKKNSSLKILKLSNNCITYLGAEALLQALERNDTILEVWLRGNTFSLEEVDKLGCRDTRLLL

In the case of COc1ccc(S[C@@H](CCN2CC[C@H](C)CCC2=O)c2ccccc2)cc1, the IC50 [1] was 19.3 µM (inactive) and the IC50 [2] was > 69.5 µM (inactive).

For COc1cccc(C(=O)NNC(=O)C(=O)Nc2ccc(C)c(Cl)c2)c1, the IC50 [3] was > 69.5 µM (inactive) and the IC50 [4] was 8.71 µM (active).

With O=S(=O)(Nc1nccs1)c1ccc(Nc2nnc(-c3ccccc3)c3ccccc23)cc1 the EC50 (Streptococcus) was 3.67 µM (active), the EC50 [5] was 1.06 µM (active) and the IC50 [6] was 5.9 µM (active). For the same compound, the IC50 [7] was 29.2 µM (active).

For CCOC(=O)COc1ccc2c(c1)C(=O)CC(C)(C)O2, the IC50 [8] was 1.55 µM (active).

For Cc1cccc(Nc2ccccc2C(=O)NCc2ccco2)c1C, the Ki (fMet-Leu-Phe receptor) was > 66.7 µM (inactive).

In the case of Cc1cc(C)n(-c2nc(SCC(=O)O)c3c4c(sc3n2)COC(C)(C)C4)n1, the EC50 (Streptococcus) was > 150 µM (not active), the EC50 [5] was 8.1 µM (active) and the IC50 (Beta-lactamase [9]) was > 59.6 µM (inactive). For the same compound, the IC50 (Beta-lactamase [10]) was > 59.6 µM (inactive), the EC50 (Streptokinase A) was > 150 µM (not active) and the IC50 (Beta-lactamase [11]) was > 59.6 µM (inactive).

In the case of CCCCC1=CC2=CC(=O)C(C)(OC(=O)CCc3ccccc3)C(=O)C2=CO1 (stereo not given), the IC50 [6] was 8.81 µM (active), the EC50 [12] was > 150 µM (not active) and the EC50 [13] was 41.6 µM (active). For the same compound, the IC50 [7] was 19.8 µM (active).

For O=[N+]([O-])c1ccc(-c2ccccc2)c([As](=O)(O)O)c1, the IC50 (Beta-lactamase [9]) was > 59.6 µM (inactive), the IC50 (Beta-lactamase [10]) was > 59.6 µM (inactive) and the IC50 (Beta-lactamase [11]) was > 59.6 µM (inactive).

With O=C1S/C(=C\c2ccc(O)c([N+](=O)[O-])c2)C(=O)N1Cc1cccc([N+](=O)[O-])c1 the IC50 (HEK293 [14]) was 17.1 µM (active), the EC50 (HEK293 [15]) was 4.33 µM (active) and the IC50 (HEK293 [16]) was 5.79 µM (inactive). For the same compound, the EC50 [17] was > 53 µM (inactive), the IC50 (HEK293 [18]) was 7.53 µM (active) and the IC50 [19] was 4.71 µM (active). The IC50 [20] was > 20 µM (inactive), the IC50 (Fatty acid synthase [21]) was 3.83 µM (active) and the EC50 [22] was 4.39 µM (active). The IC50 (HEK293 [23]) was > 20 µM (inactive) and the IC50 (Fatty acid synthase [24]) was 3.73 µM (active).

In the case of Cc1ccccc1N=C(NOCc1ccc(Cl)cc1Cl)c1nonc1N, the AC50 [25] was 3.53 µM (active) and the IC50 [4] was 13.3 µM (inactive).

For Cc1ccccc1NC(=NOCc1ccc(Cl)cc1Cl)c1nonc1N, the IC50 [3] was > 69.5 µM (inactive).

With COC(=O)[C@]12C[C@H](CC(=O)NCCCCc3ccccc3)C(=O)N(Cc3cccc4ccccc34)C1=C[C@H](C(C)C)O[C@@H]2C1CC1 the IC50 [1] was > 7.72 µM (active) and the IC50 [2] was > 69.5 µM (inactive).

In the case of CN(C)/C=N/c1nc2nccc(-c3cccc(Cl)c3)n2n1, the IC50 [8] was 1.15 µM (active).
